The values below come from patent US20220313651A1, “INHIBITORS OF ZIKA VIRUS INFECTION” (priority 2019, published 2022).

One assay concerns the target T1, ZIKV NS2B-NS3 protein (Zika virus, UniProt Q32ZE1).
T1 construct: 49-97) and NS2 protein (residues 1-185) through a covalent; made in house; host or cells: E. coli
As to the kind of experiment: SPR binding to ZIKV NS2B-NS3 protein. Conditions: 1:1 binding model, read-out: Binding affinity (KD) to ZIKV NS2B-NS3 protein.

In assay [1] the target is T2, binding between ZIKV EDIII and EDIII-specific mAb ZV-67 (Zika virus, UniProt Q32ZE1, D679E/I627V/V603I/V629A).
T2 construct: human Fc (C)
Conditions: ELISA; EDIII 1.5 μg/ml, mAb 0.5 μg/ml; read-out: IC50, blocking EDIII-mAb binding, ZV-67. On the procedure:
(§1) Binding of compounds (NPs) to ZIKV full-length E (FIG. 3A), EDIII (FIG. 3B), and NS2B-NS3 (FIG. 3C) proteins, was detected by ELISA. The percent binding was reported in the presence or absence of serially diluted NPs using the formula (1-[E/EDIII-NP]/[E/EDIII])×100 (for E/EDIII binding) or (1-[NS2B-NS3-NP]/[NS2B-NS3])×100 (for NSEB-NS3 binding). […] The concentrations of ZIKV EDIII and mAbs were 1.5 and 0.5 μg/ml, respectively. […] The concentrations of substrate (Bz-Nle-Lys-Lys-Arg-AMC) and ZIKV NS2B-NS3 protein were 4 μM and 1 μg/ml, respectively. The percent inhibition of protease activity was calculated in the presence or absence of serially diluted compounds using the formula (1-[NS2B-NS3-substrate-NP]/[NS2B-NS3-substrate])×100. The IC50 values were calculated based on the percent inhibition. The data are expressed as mean±s.e.m. (n=4).
(§2) ELISA was also used to determine the ability of ST087010 in inhibition of the binding between ZIKV EDIII and EDIII-specific human mAbs (SMZAb5, ZKA64-LALA, ZV-67, or Z004) or EDI/II-specific human mAb (ZKA78) control.

For assay [2], the target named is T3, binding between ZIKV EDIII and EDIII-specific mAb ZKA64-LALA (Zika virus, UniProt Q32ZE1, D679E/I627V/V603I/V629A).
T3 construct: human Fc (C)
The following applies: ELISA; EDIII 1.5 μg/ml, mAb 0.5 μg/ml; read-out: IC50, blocking EDIII-mAb binding, ZKA64-LALA. On the procedure: as §1, §2

Assay [3] has as its target T4, binding between ZIKV EDIII and EDIII-specific mAb Z004 (Zika virus, UniProt Q32ZE1, D679E/I627V/V603I/V629A).
T4 construct: human Fc (C)
The following applies: ELISA; EDIII 1.5 μg/ml, mAb 0.5 μg/ml; read-out: IC50, blocking EDIII-mAb binding, Z004. On the procedure: as §1, §2

The target of assay [4] is T5, binding between ZIKV EDIII and EDIII-specific mAb SMZAb5 (Zika virus, UniProt Q32ZE1, D679E/I627V/V603I/V629A).
T5 construct: human Fc (C)
The following applies: ELISA; EDIII 1.5 μg/ml, mAb 0.5 μg/ml; read-out: IC50, blocking EDIII-mAb binding, SMZAb5. On the procedure:
as §1, §2

The test system of assay [5] is ZIKV human strain PAN2016. Nature of the assay: ZIKV PAN2016 infection of Ifnar1-/- mice: tissue viral titers, immunofluorescence. It counts as in vivo. The following applies: 20 mg/kg i.p., 5 dpi. From the text: FIG. 8A is a schematic diagram of experimental procedures. […] The treated mice were infected with ZIKV human strain R103451 (200 plaque forming unit (PFU)/mouse), followed by evaluation of survival rate (FIG. 8B) or weight changes (FIG. 8C) for 21 days. The data are expressed as mean±s.e.m. of mice in each group (n=6). In a separate experiment, ST087010 or gossypol-treated mice were infected with ZIKV human strain PAN2016 (200, PFU/mouse). Five days post-infection (dpi), viral titers were detected in tissues by plaque assay (FIG. 8D), and ZIKV or caspase-3 signals were measured in eye (FIG. 8E) and testis ([…]) tissues by immunofluorescence staining. The data are expressed as mean±s.e.m. of mice in each group (n=5), and significant differences among different groups are shown as *, **, and ***. The detection limit is 25 PFU/g. ZIKV and caspase-3 (in FIG. 8E-F) were stained with anti-ZIKV and anti-active caspase-3 antibodies, respectively. Nuclei were stained with DAPI (40,6-diamidino-2-phenylindole). Representative images of immunofluorescence staining are shown. Magnification, 63×, and scale bar, 10 μm.
ST087010 was evaluated for protection against ZIKV infection in ZIKV-susceptible Ifnar1^−/− mice. Briefly, 7-8-week-old male mice were used, and two separate experiments were performed. […] These mice were infected by i.p. injection with ZIKV (human strain R103451, 200 PFU/mouse), and observed daily for weight changes and survival until 21 days post-infection (dpi). […]
Plaque assay was used to detect viral titers in ZIKV-infected tissues. […] ZIKV titers in tissues were measured from ˜40 mg of samples, and thus the detection limit is about 25 PFU/g of tissues.
Immunofluorescence staining was carried out to detect ZIKV and caspase-3 signals in ZIKV-infected mouse tissues. […] The slides were analyzed using a confocal microscope (Zeiss LSM 880) and ZEN software, and fluorescent signals were quantified by ImageJ software. […]

SMILES strings stand for the structures.

Method for ZIKV NS2B-NS3 protein: The interactions between the Z-medicaments and ZIKV full-length E or NS2B-NS3 protease were analyzed at 25° C. using the Biacore T200 system. Briefly, ZIKV E or NS2B-NS3 protein was immobilized on a sensor chip (CM5) using the Amine Coupling Kit. The disclosed Z-medicaments at various concentrations were subsequently injected as analytes, and PBS-P (20 mM phosphate buffer containing 2.7 mM KCl, 137 mM NaCl, and 0.05% surfactant P20, pH 7.4) was used as the running buffer. The data were analyzed using Biacore evaluation software (T200 version 1.0), and the curve was fitted with a 1:1 binding model.
Briefly, ZIKV EDIII protein or NS2B-NS3 protein were immobilized on a sensor chip (CM5) using Amine Coupling Kit. […] Biacore BK evaluation software (version 1.1) was applied to analyze the data, and the curve was fitted with a 1:1 binding model.

Turning to `Cc1cc2c(C(C)C)c(O)c(O)c(/C=N/n3c(=O)[nH][nH]c3=O)c2c(O)c1-c1c(C)cc2c(C(C)C)c(O)c(O)c(/C=N/n3c(=O)[nH][nH]c3=O)c2c1O` [ST087010], the dissociation constant Kd at ZIKV NS2B-NS3 protein amounted to 19.9 µM. The IC50 in assay [1] is 6.7 µM; in assay [2], 4.17 µM; in assay [3], 44.5 µM; in assay [4], 5.72 µM. In assay [5] (ZIKV PAN2016 200 PFU/mouse, heart, testis, eye, kidney, brain), the “Viral titers in tissues (plaque assay)” value is “significantly reduced viral titers”. For the same compound, the “ZIKV+ signals in eye and testis tissues” value in assay [5] (ZIKV PAN2016, immunofluorescence) is reported as “undetectable”. The “Caspase-3 staining in eye and testis tissues” value in assay [5] (ZIKV PAN2016, immunofluorescence, vs DMSO) is reported as “undetectable or diminished staining”.
